These results are taken from patent US7186722B2, “2-heteroaryl-3,4-dihydro-2h-pyrrole derivatives and the use thereof as pesticides” (Bayer Cropscience AG, priority 2001, dated 2007).

Where two headings read alike, the source gives them in different places.

Data set [1] is described as follows: logP determination by HPLC (reversed-phase C 18), EEC Directive 79/831 Annex V.A8. Type of data set: physicochemical. How it is done:
The stated logP values were determined in accordance with EEC Directive 79/831 Annex V.A8 by HPLC (High Performance Liquid Chromatography), using a reversed-phase column (C 18). Temperature: 43° C.
In the acidic range, the determination was carried out at pH 2.3 using the mobile phases 0.1% aqueous phosphoric acid and acetonitrile; linear gradient from 10% acetonitrile to 90% acetonitrile.
In the neutral range, the determination was carried out at pH 7.5 using the mobile phases 0.01 molar aqueous phosphate buffer solution and acetonitrile; linear gradient from 10% acetonitrile to 90% acetonitrile.
Calibration was carried out using unbranched alkan-2-ones (having 3 to 16 carbon atoms) with known logP values (determination of the logP values by the retention times using linear interpolation between two successive alkanones).

The subject of data set [2] is larvae of the mustard beetle (Phaedon cochleariae). Briefly: Phaedon Larvae Test. Type of data set: in vivo. As to conditions: 1000 ppm, cabbage leaves dipped. How it is done: Phaedon Larvae Test • Solvent: 30 parts by weight of dimethylformamide • Emulsifier: 1 part by weight of alkylaryl polyglycol ether To produce a suitable preparation of active compound, 1 part by weight of active compound is mixed with the stated amount of solvent and emulsifier, and the concentrate is diluted with emulsifier-containing water to the desired concentration. Cabbage leaves (Brassica oleracea) are treated by being dipped into the preparation of active compound of the desired concentration and are populated with larvae of the mustard beetle (Phaedon cochleariae) while the leaves are still moist.

Data set [3] concerns caterpillars of the army worm (Spodoptera frugiperda). Briefly: Spodoptera frugiperda Test. As to conditions: cabbage leaves dipped. Type of data set: in vivo. How it is done: Spodoptera frugiperda Test
• Solvent: 30 parts by weight of dimethylformamide. • Emulsifier: 1 part by weight of alkylaryl polyglycol ether
To produce a suitable preparation of active compound, 1 part by weight of active compound is mixed with the stated amount of solvent and emulsifier, and the concentrate is diluted with emulsifier-containing water to the desired concentration.
Cabbage leaves (Brassica oleracea) are treated by being dipped into the preparation of active compound of the desired concentration and are populated with caterpillars of the army worm (Spodoptera frugiperda) while the leaves are still moist.
After the desired period of time, the kill in % is determined. 100% means that all caterpillars have been killed; 0% means that none of the caterpillars have been killed.

The mark [4] stands for this setting: reversed-phase C18 HPLC column, pH 2.3, HPLC, 0.1% aqueous phosphoric acid/acetonitrile, 43° C., read-out: log P (pH 2.3).
Setting [5] is: pH 2.3, HPLC, 0.1% aqueous phosphoric acid/acetonitrile, 43° C., read-out: log P (pH 2.3).

As for `Fc1cccc(F)c1C1=NC(c2ccc(Br)s2)CC1` (centres unmarked) [Example 1, 2-(5-bromo-2-thienyl)-5-(2,6-difluorophenyl)-3,4-dihydro-2H-pyrrole], the chromatographic logP in data set [1] (setting [4]) stood at 3.45.

For the compound `Fc1cccc(F)c1C1=NC(c2cccs2)CC1` (centres unmarked) [Example 2], the chromatographic logP in data set [1] (setting [4]) is 1.95.

Turning to `Fc1cccc(F)c1C1=NC(c2sccc2Cl)CC1` (centres unmarked) [Example 3], in data set [1] (setting [4]), the chromatographic logP was 3.34.

With `Cc1ccsc1C1CCC(c2c(F)cccc2F)=N1` (centres unmarked) [Example 4], in data set [1] (setting [4]), the chromatographic logP came to 2.34.

In the case of `Fc1cccc(F)c1C1=NC(c2cc3ccccc3s2)CC1` (centres unmarked) [Example 5], the chromatographic logP in data set [1] (setting [4]) came out at 3.11.

On to `Fc1cccc(F)c1C1=NC(c2cc(Br)cs2)CC1` (centres unmarked) [Example 8, 2-(4-bromo-2-thienyl)-5-(2,6-difluorophenyl)-3,4-dihydro-2H-pyrrole], for which the chromatographic logP in data set [1] (setting [4]) was 3.41.

As to `Fc1cccc(F)c1C1=NC(c2ccc(Cl)nc2)CC1` (centres unmarked) [Example 9, 2-(6-chloro-3-pyridinyl)-5-(2,6-difluorophenyl)-3,4-dihydro-2H-pyrrole], the chromatographic logP in data set [1] (pH 2.3) worked out at 1.93.

As for `Fc1cccc(F)c1C1=NC(c2ccc(-c3ccc(OC(F)(F)F)cc3)nc2)CC1` (centres unmarked) [Example 10, 5-[5-(2,6-difluorophenyl)-3,4-dihydro-2H-pyrrol-2-yl]-2-[4-(trifluoromethoxy)phenyl]pyridine], the chromatographic logP in data set [1] (setting [4]) is 3.5.

On to `Fc1cccc(F)c1C1=NC(c2ccc(-c3ccc(OC(F)(F)F)cc3)s2)CC1` (centres unmarked) [Example 11, 5-(2,6-difluorophenyl)-2-{5-[4-(trifluoromethoxy)phenyl]-2-thienyl}-3,4-dihydro-2H-pyrrole], for which the chromatographic logP in data set [1] (setting [4]) turned out to be 5.16.

For `Fc1cccc(F)c1C1=NC(c2ccc(-c3cccc(OC(F)(F)F)c3)s2)CC1` (centres unmarked) [Example 12, 5-(2,6-difluorophenyl)-2-{5-[3-(trifluoromethoxy)phenyl]-2-thienyl}-3,4-dihydro-2H-pyrrole], in data set [1] (setting [4]), the chromatographic logP came to 4.84.

On to `Fc1cccc(F)c1C1=NC(c2cc(-c3cccc(OC(F)(F)F)c3)cs2)CC1` (centres unmarked) [Example 13, 5-(2.6-difluorophenyl)-2-{4-[3-(trifluoromethoxy)phenyl]-2-thienyl}-3,4-dihydro-2H-pyrrole], for which, in data set [1] (setting [4]), the chromatographic logP came out at 4.08.

As for `Fc1cccc(F)c1C1=NC(c2cc(-c3ccc(OC(F)(F)F)cc3)cs2)CC1` (centres unmarked) [Example 14, 5-(2,6-difluorophenyl)-2-{4-[4-(trifluoromethoxy)phenyl]-2-thienyl}-3,4-dihydro-2H-pyrrole], the chromatographic logP in data set [1] (setting [4]) worked out at 4.66.

As to `CC(C)(C)OC(=O)NC(CCC(=O)c1c(F)cccc1F)c1ccc(Br)s1` (centres unmarked) [II-1, tert-butyl 1-(5-bromo-2-thienyl)-4-(2,6-difluorophenyl)-4-oxobutylcarbamate], the chromatographic logP in data set [1] (setting [4]) was 4.29.

Turning to `CC(C)(C)OC(=O)NC(CCC(=O)c1c(F)cccc1F)c1cccs1` (centres unmarked) [II-2], in data set [1] (setting [5]), the chromatographic logP was found to be 4.48.

As for `CC(C)(C)OC(=O)NC(CCC(=O)c1c(F)cccc1F)c1sccc1Cl` (centres unmarked) [II-3], the chromatographic logP in data set [1] (setting [5]) came out at 4.28.

`Cc1ccsc1C(CCC(=O)c1c(F)cccc1F)NC(=O)OC(C)(C)C` (centres unmarked) [II-4]: the chromatographic logP in data set [1] (setting [4]) was determined as 4.27.

In the case of `CC(C)(C)OC(=O)NC(CCC(=O)c1c(F)cccc1F)c1cc2ccccc2s1` (centres unmarked) [II-5], the chromatographic logP in data set [1] (setting [4]) amounted to 4.2.

Take `[N-]=[N+]=NC(CCC(=O)c1c(F)cccc1F)c1cc(Br)cs1` (centres unmarked) [III-1, 4-azido-4-(4-bromo-2-thienyl)-1-(2,6-difluorophenyl)-1-butanone]: the chromatographic logP in data set [1] (setting [4]) came out at 3.

As for `[N-]=[N+]=NC(CCC(=O)c1c(F)cccc1F)c1ccc(Cl)nc1` (centres unmarked) [III-2, 4-azido-4-(6-chloro-3-pyridinyl)-1-(2,6-difluorophenyl)-1-butanone], in data set [1] (setting [4]), the chromatographic logP is 3.33.

Take `[N-]=[N+]=NC(CCC(=O)c1c(F)cccc1F)c1ccc(-c2ccc(OC(F)(F)F)cc2)nc1` (centres unmarked) [III-3, 4-azido-1-(2,6-difluorophenyl)-4-{6-[4-(trifluoromethoxy)phenyl]-3-pyridinyl}-1-butanone]: the chromatographic logP in data set [1] (setting [4]) turned out to be 4.78.

In the case of `CC(C)(C)OC(=O)N1C(=O)CCC1c1ccc(Br)s1` (centres unmarked) [IX-1, tert-butyl 2-(5-bromo-2-thienyl)-5-oxo-1-pyrrolidinecarboxylate], the chromatographic logP in data set [1] (setting [4]) amounted to 3.03.

With `CC(C)(C)OC(=O)N1C(=O)CCC1c1cccs1` (centres unmarked) [IX-2], in data set [1] (setting [4]), the chromatographic logP was found to be 2.39.

`CC(C)(C)OC(=O)N1C(=O)CCC1c1sccc1Cl` (centres unmarked) [IX-3]: the chromatographic logP in data set [1] (reversed-phase C18 HPLC column, pH 7.5, HPLC, 0.01 molar aqueous phosphate buffer/acetonitrile, 43° C., read-out: log P (pH 7.5)) came to 2.77.

As for `Cc1ccsc1C1CCC(=O)N1C(=O)OC(C)(C)C` (centres unmarked) [IX-4], the chromatographic logP in data set [1] (setting [4]) amounted to 2.65.

Take `CC(C)(C)OC(=O)N1C(=O)CCC1c1cc2ccccc2s1` (centres unmarked) [IX-5]: in data set [1] (setting [4]), the chromatographic logP turned out to be 3.03.

Regarding `O=C1CCC(c2ccc(Br)s2)N1` (centres unmarked) [XI-1, 5-(5-bromo-2-thienyl)-2-pyrrolidinone], the chromatographic logP in data set [1] (setting [4]) stood at 1.62.

As for `O=C1CCC(c2cccs2)N1` (centres unmarked) [XI-2], in data set [1] (setting [4]), the chromatographic logP was determined as 1.03.

Turning to `O=C1CCC(c2sccc2Cl)N1` (centres unmarked) [XI-3], in data set [1] (setting [4]), the chromatographic logP worked out at 1.41.

Turning to `Cc1ccsc1C1CCC(=O)N1` (centres unmarked) [XI-4], the chromatographic logP in data set [1] (setting [4]) worked out at 1.33.

On to `O=C1CCC(c2cc3ccccc3s2)N1` (centres unmarked) [XI-5], for which the chromatographic logP in data set [1] (setting [4]) is 1.73.

In the case of `O=C(CCC(Cl)c1cc(Br)cs1)c1c(F)cccc1F` (centres unmarked) [XV-1, 4-(4-bromo-2-thienyl)4-chloro-1-(2,6-difluorophenyl)-1-butanone], the chromatographic logP in data set [1] (setting [4]) came to 3.

As for `O=C(CCC(Cl)c1ccc(Cl)nc1)c1c(F)cccc1F` (centres unmarked) [XV-2, 4-(6-chloro-3-pyridinyl)-4-chloro-1-(2,6-difluorophenyl)-1-butanone], in data set [1] (setting [4]), the chromatographic logP stood at 3.37.

As to `O=C(CCC(Cl)c1ccc(-c2ccc(OC(F)(F)F)cc2)nc1)c1c(F)cccc1F` (centres unmarked) [XV-3, 4-chloro-1-(2,6-difluorophenyl)4-{6-[4-(trifluoromethoxy)phenyl]-3-pyridinyl}-1-butanone], the chromatographic logP in data set [1] (setting [4]) was 4.88.

For the compound `O=C(c1c(F)cccc1F)C1CC1c1cc(Br)cs1` (centres unmarked) [XVII-1, [2-(4-bromo-2-thienyl)cyclopropyl](2,6-difluorophenyl)methanone], in data set [1] (setting [4]), the chromatographic logP was 4.14.

`O=C(c1c(F)cccc1F)C1CC1c1ccc(Cl)nc1` (centres unmarked) [XVII-2, [2-(6-chloro-3-pyridinyl)cyclopropyl](2,6-difluorophenyl)methanone]: the chromatographic logP in data set [1] (setting [4]) was 2.92.

On to `O=C(c1c(F)cccc1F)C1CC1c1ccc(-c2ccc(OC(F)(F)F)cc2)nc1` (centres unmarked) [XVII-3, (2,6-difluorophenyl)(2-{6-[4-(trifluoromethoxy)phenyl]-3-pyridinyl}cyclopropyl)methanone], for which the chromatographic logP in data set [1] (setting [4]) was determined as 4.4.

Take `O=C(/C=C/c1cc(Br)cs1)c1c(F)cccc1F` [XVIII-1, 3-(4-bromo-2-thienyl)-1-(2,6-difluorophenyl)-2-propen-1-one]: the chromatographic logP in data set [1] (setting [4]) was determined as 3.78.

For `O=C(/C=C/c1ccc(Cl)nc1)c1c(F)cccc1F` [XVIII-2, 3-(6-chloro-3-pyridinyl)-1-(2,6-difluorophenyl)-2-propen-1-one], the chromatographic logP in data set [1] (setting [4]) came out at 2.87.

`Cc1ccsc1C1CCC(c2c(F)cccc2F)=N1` (centres unmarked) [drawing 87]: the “Kill rate in % after 7 d” value in data set [2] came to 100%.

Take `Fc1cccc(F)c1C1=NC(c2ccc(-c3cccc(OC(F)(F)F)c3)s2)CC1` (centres unmarked) [drawing 88]: the “Kill rate in % after 7 d” value in data set [2] was 100%.

Regarding `Fc1cccc(F)c1C1=NC(c2cc(-c3ccc(OC(F)(F)F)cc3)cs2)CC1` (centres unmarked) [drawing 89], the “Kill rate in % after 7 d” value in data set [2] is reported as 100%.

Take `Fc1cccc(F)c1C1=NC(c2cc3sc(-c4ccc(OC(F)(F)F)cc4)cc3s2)CC1` (centres unmarked) [drawing 91]: in data set [3] (500 ppm), the “Kill rate in % after 7 d” value is on record as 100%.

In the case of `Fc1cccc(F)c1C1=NC(c2ccc(-c3cccc(OC(F)(F)F)c3)s2)CC1` (centres unmarked) [drawing 92], the “Kill rate in % after 7 d” value in data set [3] (1000 ppm) is 100%.

In the case of `Fc1cccc(F)c1C1=NC(c2cc(Br)cs2)CC1` (centres unmarked) [drawing 93], the “Kill rate in % after 7 d” value in data set [3] (1000 ppm) worked out at 100%.

As to `Fc1cccc(F)c1C1=NC(c2cc(-c3cccc(OC(F)(F)F)c3)cs2)CC1` (centres unmarked) [drawing 94], the “Kill rate in % after 7 d” value in data set [3] (1000 ppm) was 100%.

Take `Fc1cccc(F)c1C1=NC(c2cc(-c3ccc(OC(F)(F)F)cc3)cs2)CC1` (centres unmarked) [drawing 95]: in data set [3] (1000 ppm), the “Kill rate in % after 7 d” value is given as 100%.

Consider `Fc1cccc(F)c1C1=NC(c2ccc(Cl)nc2)CC1` (centres unmarked) [drawing 96], for which the “Kill rate in % after 7 d” value in data set [3] (500 ppm) was found to be 100%.
